Assay results taken from paper PMC9162962 (European Journal of Medicinal Chemistry, 2022).

Biological target: SARS-CoV-2 M^pro (Severe acute respiratory syndrome coronavirus 2, UniProt P0DTD1)
Type: biochemical

NC(=S)N/N=C/c1ccc(-c2ccc(C(=O)O)c(O)c2)o1 [F8–B6, (E)-4-(5-((2-carbamothioylhydrazono)methyl)furan-2-yl)-2-hydroxybenzoic acid]
Effect of dithiothreitol (DTT) on inhibition: reverse the inhibitory effect
